Experimental data as given in ChEMBL document CHEMBL1129235, “Discovery of the hemifumarate and (alpha-L-alanyloxy)methyl ether as prodrugs of an antirheumatic oxindole: prodrugs for the enolic OH group” (J Med Chem, 1996).
Converted amounts (≈) assume the structure as drawn.

Legend:
Rattus norvegicus = organism: Rattus norvegicus; assay: Relative bioavailability of prodrugs in rat; format: ADME, organism-based; settings: in vivo
[1] = (§1) Aqueous solubility; format: physicochemical; settings: aqueous medium (not further specified); read-out: S
Canis familiaris = organism: Canis familiaris; assay: Relative bioavailability of oxindole prodrugs in dog; format: ADME, organism-based, Canis lupus familiaris; settings: in vivo
[2] = as §1; format: physicochemical; settings: aqueous medium (not further specified); read-out: S; remark: listed apart in the source
[3] = Relative bioavailability of oxindole prodrugs in monkey; format: ADME, organism-based; settings: simiiformes, in vivo
[4] = Ionization constant for the compound was evaluated; format: physicochemical
[5] = as §1; format: physicochemical; settings: aqueous medium (not further specified); read-out: S; remark: listed apart in the source
[6] = as §1; format: physicochemical; settings: aqueous medium (not further specified); read-out: S; remark: listed apart in the source

Row | SMILES | Relative F% (Rattus norvegicus) | solubility [1] [µg/mL] | other results
1 | NC(=O)N1C(=O)/C(=C(/OCOC(=O)COCc2ccccc2)c2cccs2)c2cc(F)c(Cl)cc21 | 42 | – | –
2 | NC(=O)N1C(=O)/C(=C(\OC(=O)c2cccc(C(=O)O)c2)c2cccs2)c2cc(F)c(Cl)cc21 | 4.2 | 0.58 (≈ 1.19 µM) | –
3 | CC(O)C(=O)OCO/C(=C1/C(=O)N(C(N)=O)c2cc(Cl)c(F)cc21)c1cccs1 (stereo not drawn) | 90 | – | Relative bioavailability (Canis familiaris): 22; solubility [2]: 0.38 µg/mL (≈ 0.862 µM)
4 | CCC(OCc1ccccc1)C(=O)OCO/C(=C1/C(=O)N(C(N)=O)c2cc(Cl)c(F)cc21)c1cccs1 (stereo not drawn) | 86 | – | Relative bioavailability (Canis familiaris): 12
5 | CC(C)OC(=O)OC(C)O/C(=C1/C(=O)N(C(N)=O)c2cc(Cl)c(F)cc21)c1cccs1 (stereo not drawn) | 12 | – | –
6 | CCN(CC)C(=O)OCC(=O)OCO/C(=C1/C(=O)N(C(N)=O)c2cc(Cl)c(F)cc21)c1cccs1 | 36 | – | –
7 | Cl.Cl.NCCCCC(N)C(=O)OCO/C(=C1/C(=O)N(C(N)=O)c2cc(Cl)c(F)cc21)c1cccs1 (stereo not drawn) | 49 | – | –
8 | COCC(=O)O/C(=C1\C(=O)N(C(N)=O)c2cc(Cl)c(F)cc21)c1cccs1 | 8.9 | – | –
9 | CC(C)C(N)C(=O)OCO/C(=C1/C(=O)N(C(N)=O)c2cc(Cl)c(F)cc21)c1cccs1.Cc1ccc(S(=O)(=O)O)cc1 (stereo not drawn) | 27 | – | –
10 | C[C@@H](N)C(=O)OCO/C(=C1/C(=O)N(C(N)=O)c2cc(Cl)c(F)cc21)c1cccs1.Cc1ccc(S(=O)(=O)O)cc1 | 80 | – | Relative bioavailability (Canis familiaris): 78; Relative bioavailability [3]: 78; solubility [2]: 150 µg/mL
11 | CC(NC(=O)OC(C)(C)C)C(=O)OCO/C(=C1/C(=O)N(C(N)=O)c2cc(Cl)c(F)cc21)c1cccs1 (stereo not drawn) | 20 | – | –
12 | COC(C)C(=O)OCO/C(=C1/C(=O)N(C(N)=O)c2cc(Cl)c(F)cc21)c1cccs1 (stereo not drawn) | 45 | – | –
13 | NC(=O)N1C(=O)C(=C(O)c2cccs2)c2cc(F)c(Cl)cc21 [ILONIDAP] | 100 | 40 (≈ 118 µM) | pKa [4]: 3.5; Relative bioavailability (Canis familiaris): 100; Relative bioavailability [3]: 100
14 | CCC(=O)O/C(=C1\C(=O)N(C(N)=O)c2cc(Cl)c(F)cc21)c1cccs1 | 6.6 | 0.003 (≈ 0.0076 µM) | –
15 | CCOC(=O)OC(C)O/C(=C1/C(=O)N(C(N)=O)c2cc(Cl)c(F)cc21)c1cccs1 (stereo not drawn) | 26 | 0.009 (≈ 0.0198 µM) | Relative bioavailability (Canis familiaris): 1.4
16 | CCCC(OCc1ccccc1)C(=O)OCO/C(=C1/C(=O)N(C(N)=O)c2cc(Cl)c(F)cc21)c1cccs1 (stereo not drawn) | 58 | – | Relative bioavailability (Canis familiaris): 7.5
17 | NC(=O)N1C(=O)/C(=C(\OC(=O)c2ccccc2)c2cccs2)c2cc(F)c(Cl)cc21 | 0 | – | –
18 | Cc1ccc(S(=O)(=O)O)cc1.NCC(=O)OCO/C(=C1/C(=O)N(C(N)=O)c2cc(Cl)c(F)cc21)c1cccs1 | 46 | – | Relative bioavailability (Canis familiaris): 78
19 | CCC(OC)C(=O)OCO/C(=C1/C(=O)N(C(N)=O)c2cc(Cl)c(F)cc21)c1cccs1 (stereo not drawn) | 93 | – | –
20 | CCN(CC)C(=O)COC(=O)CCC(=O)O/C(=C1/C(=O)N(C(N)=O)c2cc(Cl)c(F)cc21)c1cccs1 | 16 | – | –
21 | CC(C)OC(=O)O/C(=C1/C(=O)N(C(N)=O)c2cc(Cl)c(F)cc21)c1cccs1 (stereo in doubt; 33) | 9.9 | – | –
22 | CC(=O)OC(C)O/C(=C1/C(=O)N(C(N)=O)c2cc(Cl)c(F)cc21)c1cccs1 (stereo not drawn) | 2.3 | 0.04 (≈ 0.0942 µM) | –
23 | CC(C)CC(N)C(=O)OCO/C(=C1/C(=O)N(C(N)=O)c2cc(Cl)c(F)cc21)c1cccs1.Cc1ccc(S(=O)(=O)O)cc1 (stereo not drawn) | 81 | – | –

Row | SMILES | Relative F% (Rattus norvegicus) | solubility [1] [µg/mL] | other results
24 | NC(=O)N1C(=O)/C(=C(\OC(=O)c2cccnc2)c2cccs2)c2cc(F)c(Cl)cc21 | 0 | < 0.06 | solubility [5]: < 0.06 µg/mL
25 | CC(=O)OCC(=O)OCO/C(=C1/C(=O)N(C(N)=O)c2cc(Cl)c(F)cc21)c1cccs1 | 17 | < 0.02 | –
26 | NC(=O)N1C(=O)/C(=C(/OCOC(=O)c2ccccc2)c2cccs2)c2cc(F)c(Cl)cc21 | 0 | – | –
27 | COC(=O)O/C(=C1\C(=O)N(C(N)=O)c2cc(Cl)c(F)cc21)c1cccs1 | 13 | – | –
28 | CC(C)(C)OC(=O)NCC(=O)OCO/C(=C1/C(=O)N(C(N)=O)c2cc(Cl)c(F)cc21)c1cccs1 | 0 | 0.06 (≈ 0.114 µM) | –
29 | CCCCC(=O)O/C(=C1\C(=O)N(C(N)=O)c2cc(Cl)c(F)cc21)c1cccs1 | 17 | 0.013 (≈ 0.0307 µM) | –
30 | NC(=O)N1C(=O)/C(=C(\OC(=O)c2ccccn2)c2cccs2)c2cc(F)c(Cl)cc21 | 1.6 | < 0.06 | solubility [5]: < 0.06 µg/mL
31 | CC(C)(C)C(=O)OCO/C(=C1/C(=O)N(C(N)=O)c2cc(Cl)c(F)cc21)c1cccs1 | 0 | – | –
32 | O=C(c1cccs1)c1c2cc(F)c(Cl)cc2n2c(=O)[nH]c(=O)oc12 | 25 | 17 (≈ 46.6 µM) | –
33 | CCCCCCCCOC(=O)O/C(=C1/C(=O)N(C(N)=O)c2cc(Cl)c(F)cc21)c1cccs1 | 5.7 | – | –
34 | CCOC(=O)CCC(=O)O/C(=C1\C(=O)N(C(N)=O)c2cc(Cl)c(F)cc21)c1cccs1 | 3.5 | – | –
35 | CC(C)OC(=O)O/C(=C1/C(=O)N(C(N)=O)c2cc(Cl)c(F)cc21)c1cccs1 (stereo in doubt; 32) | 0.6 | – | –
36 | COCC(=O)OC(C)O/C(=C1/C(=O)N(C(N)=O)c2cc(Cl)c(F)cc21)c1cccs1 (stereo not drawn) | 47 | 0.34 (≈ 0.747 µM) | Relative bioavailability (Canis familiaris): 5.2
37 | NC(=O)N1C(=O)/C(=C(/OC(=O)/C=C/c2ccccc2)c2cccs2)c2cc(F)c(Cl)cc21 | 4 | – | –
38 | NC(=O)N1C(=O)/C(=C(\OC(=O)c2ccncc2)c2cccs2)c2cc(F)c(Cl)cc21 | 2.2 | 0.32 (≈ 0.721 µM) | solubility [5]: < 0.07 µg/mL
39 | CCOC(=O)/C=C/C(=O)O/C(=C1/C(=O)N(C(N)=O)c2cc(Cl)c(F)cc21)c1cccs1 | 21 | < 0.02 | Relative bioavailability (Canis familiaris): 6.4
40 | CCOC(=O)O/C(=C1\C(=O)N(C(N)=O)c2cc(Cl)c(F)cc21)c1cccs1 | 3.5 | 0.023 (≈ 0.056 µM) | –
41 | CC(C)(C)C(=O)O/C(=C1\C(=O)N(C(N)=O)c2cc(Cl)c(F)cc21)c1cccs1 | 3.7 | – | –
42 | CC(=O)OCC(=O)O/C(=C1\C(=O)N(C(N)=O)c2cc(Cl)c(F)cc21)c1cccs1 | 6.6 | – | –
43 | CC(=O)O/C(=C1\C(=O)N(C(N)=O)c2cc(Cl)c(F)cc21)c1cccs1 | 14 | 0.011 (≈ 0.0289 µM) | –
44 | NC(=O)N1C(=O)/C(=C(/OC(=O)/C=C/C(=O)O)c2cccs2)c2cc(F)c(Cl)cc21 | 95 | 0.08 (≈ 0.183 µM) | Relative bioavailability (Canis familiaris): 91; solubility [6]: 24 µg/mL (≈ 54.9 µM); Relative bioavailability [3]: 73; solubility [2]: 2.5 µg/mL (≈ 5.72 µM)
45 | COCC(=O)OCO/C(=C1/C(=O)N(C(N)=O)c2cc(Cl)c(F)cc21)c1cccs1 | 62 | – | –
